Results taken from PubChem BioAssay (NCI).
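Growth conditions: 96-well plates. Treatment: test compound, 48 hours, 5 concentrations. Analysis: linear interpolation between bracketing concentrations; unreached endpoints set to highest concentration. Here, GI50 denotes the concentration required for 50% inhibition of growth. At the TGI there is no net growth.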

Assays:
Test in all cases: inhibition of tumour cell growth, NCI panel, 48 h
[1] = tested on: SK-OV-3 ovarian
[2] = tested on: OVCAR-3 ovarian
[3] = tested on: SW-620 colon
[4] = tested on: UACC-62 melanoma
[5] = tested on: SK-MEL-28 melanoma
[6] = tested on: SK-MEL-5 melanoma
[7] = tested on: SF-268 CNS
[8] = tested on: HT29 colon
[9] = tested on: OVCAR-4 ovarian
[10] = tested on: MALME-3M melanoma

| Structure (SMILES) | GI50 [1] [µM] | TGI [1] [µM] | GI50 [2] [µM] | TGI [2] [µM] | GI50 [3] [µM] | TGI [3] [µM] | GI50 [4] [µM] | TGI [4] [µM] | GI50 [5] [µM] | TGI [5] [µM] | GI50 [6] [µM] | TGI [6] [µM] | GI50 [7] [µM] | TGI [7] [µM] | GI50 [8] [µM] | TGI [8] [µM] | GI50 [9] [µM] | TGI [9] [µM] | TGI [10] [µM] | GI50 [10] [µM] |
| --- | --- | --- | --- | --- | --- | --- | --- | --- | --- | --- | --- | --- | --- | --- | --- | --- | --- | --- | --- | --- |
| Cc1ccccc1[P+](Cc1ccccc1)(c1ccccc1)c1ccccc1 | 5.28 | > 100 | 1.42 | > 100 | 2.62 | 33.3 | 1.36 | 11.9 | 2.91 | 37.9 | 0.863 | 2.29 | 3.44 | > 100 | 1.79 | 29 | 1.91 | > 100 |  |  |
| CC1=C(Oc2ccccc2)C(CCC(=O)O)c2c(O)cc(Cl)c(O)c21 (stereo not drawn) |  |  |  | > 100 |  | > 100 |  |  |  | > 100 |  | > 100 |  | > 100 |  |  |  | > 100 |  |  |
| COc1cc(OC(C)=O)cc2c(OC(C)=O)ccc(OC(C)=O)c12 |  |  |  | > 100 |  | > 100 |  | > 100 |  | > 100 |  | > 100 |  | > 100 |  | > 100 |  | > 100 |  |  |
| O=C1CC(c2ccc(O)cc2)C2(O1)C(=O)OC(C(O)CO)C2O (stereo not drawn) |  | > 100 |  | > 100 |  | > 100 |  | > 100 |  | > 100 |  | > 100 |  | > 100 |  | > 100 |  |  | > 100 |  |
| CCCCCCCCN=C(N)c1ccc(N2CCN(c3ccc(C(N)=NCCCCCCCC)cc3)CC2)cc1 | 1.76 | 10.2 | 0.931 | 3.2 | 1.76 | 16.8 | 1.92 | 8.44 | 2.74 | 17.2 | 1.05 | 2.45 | 1.85 | 5.91 | 1.61 | 13.6 | 2.35 | 14.9 |  |  |
| COc1ccc2sc3c(NCCCN(C)C)nc4ccccc4c3c(=O)c2c1 |  |  | 1.78 | 3.27 | 1.55 | 3.04 | 1.8 | 3.24 | 1.78 | 3.2 | 1.73 | 3.12 | 1.67 | 3.35 | 1.5 | 3.02 | 1.8 | 3.82 | 3.18 | 1.62 |
| COc1ccc(/C=C2\CCCC3=C2N=C2SC(C)=NN2C3c2ccc(OC)c(OC)c2)cc1OC (stereo not drawn) | 62.5 | > 100 | 4.62 | 74.9 | 6.79 | 53.8 | 4.68 | 45.6 | 8.92 | > 100 | 6.27 | > 100 | 18.2 | > 100 | 11.1 | 90.1 |  |  | 56.6 | 15.1 |
| CC1(C)C(=NNC(=O)C[N+](C)(C)C)C(C)(C)C1=NNC(=O)C[N+](C)(C)C |  | > 100 |  | > 100 |  |  |  | > 100 |  | > 100 |  | > 100 |  | > 100 |  | > 100 |  | > 100 | > 100 |  |
| O=C(/C=C/c1ccccc1)c1cc(Br)ccc1O |  | 38.1 |  | 43 |  | 46.8 |  | 27.4 |  | 31.5 |  | 34.6 |  | 34 |  | 31 |  | 30.3 |  |  |
